These compounds were tested against MAPK14 (human) (UniProt Q16539) (assay: Inhibition of MAPK14 Kinase Activity).
Chain of MAPK14 (human) (Q16539 whole entry, looked up): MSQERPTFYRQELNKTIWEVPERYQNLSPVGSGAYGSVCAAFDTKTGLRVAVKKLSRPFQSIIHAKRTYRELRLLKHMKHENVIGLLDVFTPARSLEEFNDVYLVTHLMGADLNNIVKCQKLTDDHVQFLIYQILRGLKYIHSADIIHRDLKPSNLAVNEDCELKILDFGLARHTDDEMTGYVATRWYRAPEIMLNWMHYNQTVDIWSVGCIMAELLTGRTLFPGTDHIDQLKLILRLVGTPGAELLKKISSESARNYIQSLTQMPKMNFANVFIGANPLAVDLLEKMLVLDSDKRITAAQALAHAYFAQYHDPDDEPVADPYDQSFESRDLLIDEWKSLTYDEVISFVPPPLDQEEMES
`Cc1cc(C)cc(SC2CCC(=O)N(c3c(Cl)ccnc3Cl)C2)c1` (centres undefined) was tested, and the IC50 was ≤ 10 µM. `O=C1CCC(Oc2ccccc2Cl)CN1c1c(Cl)csc1Cl` (centres undefined) was tested, and the IC50 was ≤ 10 µM. In the case of `O=C1CCC(Oc2ccc(F)cc2F)CN1c1c(Cl)cc(CO)cc1Cl` (centres undefined), the IC50 is reported as ≤ 10 µM. In the case of `CC(c1ccc(F)cc1F)C1CCC(=O)N(c2c(Cl)cccc2Cl)C1` (centres undefined), the IC50 is reported as ≤ 10 µM. For `O=C1CSC(Cc2ccc(F)cc2F)CN1c1c(Cl)ccc(O)c1Cl` (centres undefined), the IC50 was ≤ 10 µM. For `O=C1CCC(Sc2cccc3ccccc23)CN1c1c(Cl)cncc1Cl` (centres undefined), the IC50 was ≤ 10 µM. For `O=C(CNc1cc(Cl)c(N2CC(Cc3ccc(F)cc3F)CCC2=O)c(Cl)c1)NOCc1ccccc1` (centres undefined), the IC50 was ≤ 10 µM. For `O=C(Cc1ccccc1)NC1CCC(Cl)C(N2CC(Oc3ccc(F)cc3F)CCC2=O)C1Cl` (centres undefined), the IC50 was ≤ 10 µM. With `Nc1cc(Cl)c(N2CC(Sc3ccc(F)cc3F)CCC2=O)c(Cl)n1` (centres undefined) the IC50 was ≤ 10 µM. In the case of `Cc1cc(C(=O)N2CCN(C)CC2)cc(C)c1N1CC(Cc2ccc(F)cc2F)CCC1=O` (centres undefined), the IC50 is reported as ≤ 10 µM. For `COc1ccc(CC2CCC(=O)N(C3C(Cl)CCCC3Cl)C2)cc1` (centres undefined), the IC50 was ≤ 10 µM. `CC(=O)Nc1cnc(Cl)c(N2CC(Oc3ccc(F)cc3F)CCC2=O)c1Cl` (centres undefined) was tested, and the IC50 was ≤ 10 µM. With `O=C(Cc1ccccc1)Nc1cc(Cl)c(N2CC(Oc3ccc(F)cc3F)CCC2=O)c(Cl)c1` (centres undefined) the IC50 was ≤ 10 µM. With `O=C1CCC(Cc2ccc(F)cc2F)CN1c1c(Cl)cc(CO)nc1Cl` (centres undefined) the IC50 was ≤ 10 µM. `CC(=O)Nc1ncc(Cl)c(N2CC(Oc3ccc(F)cc3F)CCC2=O)c1Cl` (centres undefined) was tested, and the IC50 was ≤ 10 µM. In the case of `O=C1CCC(Cc2ccc([N+](=O)[O-])cc2)CN1c1c(Cl)cccc1Cl` (centres undefined), the IC50 is reported as ≤ 10 µM. With `O=C1CCC(Oc2ccc(Cl)cc2)CN1c1c(Cl)cncc1Cl` (centres undefined) the IC50 was ≤ 10 µM. In the case of `O=C1CCC(Cc2ccc3ccccc3c2)CN1c1c(Cl)cccc1Cl` (centres undefined), the IC50 is reported as ≤ 10 µM. For `O=C1SCC(Cc2ccc(F)cc2F)CN1c1c(Cl)ccc(O)c1Cl` (centres undefined), the IC50 was ≤ 10 µM. With `COC(=O)CCc1cc(Cl)c(N2CC(Cc3ccc(F)cc3F)CCC2=O)c(Cl)c1` (centres undefined) the IC50 was ≤ 10 µM. `O=C1NCC(Cc2cc(Cl)cc(Cl)c2)CN1c1c(Cl)cccc1Cl` (centres undefined) was tested, and the IC50 was ≤ 10 µM. `C[C@@H]1C[C@H](Cc2ccc(F)cc2F)CN(c2c(Cl)cc([N+](=O)[O-])cc2Cl)C1=O` was tested, and the IC50 was ≤ 10 µM. For `O=C1CCC(Sc2ccccc2Cl)CN1c1c(Cl)ccnc1Cl` (centres undefined), the IC50 was ≤ 10 µM. In the case of `CC(C)(C)OC(=O)N(Cc1ccccn1)c1cc(Cl)c(N2CC(Cc3ccc(F)cc3F)CCC2=O)c(Cl)c1` (centres undefined), the IC50 is reported as ≤ 10 µM. With `O=C1NCC(Cc2cccc3ccccc23)CN1c1c(Cl)cccc1Cl` (centres undefined) the IC50 was ≤ 10 µM. `Cc1ccc(SC2CCC(=O)N(c3c(Cl)ccnc3Cl)C2)cc1` (centres undefined) was tested, and the IC50 was ≤ 10 µM. `O=C1CCC(Cc2ccc(F)cc2)CN1c1c(Cl)cccc1Cl` (centres undefined) was tested, and the IC50 was ≤ 10 µM. In the case of `O=C1CCC(Cc2ccc(Cl)cc2)CN1c1c(Cl)cncc1Cl` (centres undefined), the IC50 is reported as ≤ 10 µM. In the case of `O=C(N[C@H]1C[C@H](Cc2ccc(F)cc2F)CN(c2c(Cl)cccc2Cl)C1=O)OCc1ccccc1`, the IC50 is reported as ≤ 10 µM. `O=C1CCC(Oc2ccccc2F)CN1C1C(Cl)CCCC1Cl` (centres undefined) was tested, and the IC50 was ≤ 10 µM. For `CC(=O)Nc1ccc(Cl)c(N2CC(Cc3ccc(F)cc3F)CCC2=O)c1` (centres undefined), the IC50 was ≤ 10 µM. In the case of `COc1ccccc1OC1CCC(=O)N(c2c(Cl)cccc2Cl)C1` (centres undefined), the IC50 is reported as ≤ 10 µM. With `CNc1ccc(Cl)c(N2CC(Cc3ccc(F)cc3F)CNC2=O)c1Cl` (centres undefined) the IC50 was ≤ 10 µM. With `O=C1CCC(Cc2ccc(F)cc2F)CN1c1c(Cl)cc(CO)cc1Cl` (centres undefined) the IC50 was ≤ 10 µM. For `O=C1CCC(Sc2ccccc2Cl)CN1C1C(Cl)CCCC1Cl` (centres undefined), the IC50 was ≤ 10 µM. In the case of `CN1CCN(Cc2cc(Cl)c(N3CC(Cc4ccc(F)cc4F)CCC3=O)c(Cl)c2)CC1` (centres undefined), the IC50 is reported as ≤ 10 µM. With `O=C1CCC(Sc2ccc(F)cc2F)CN1c1c(Cl)cnc(O)c1Cl` (centres undefined) the IC50 was ≤ 10 µM. In the case of `O=C(Cc1ccccc1)NC1CCC(Cl)C(N2CC(Cc3ccc(F)cc3F)CCC2=O)C1Cl` (centres undefined), the IC50 is reported as ≤ 10 µM. For `OCc1ccccc1CC1CCCN(c2c(Cl)cccc2Cl)C1` (centres undefined), the IC50 was ≤ 10 µM. `N#CCCc1cc(Cl)c(N2CC(Cc3ccc(F)cc3F)CCC2=O)c(Cl)c1` (centres undefined) was tested, and the IC50 was ≤ 10 µM. `COc1ccc(SC2CCC(=O)N(c3c(Cl)cccc3Cl)C2)cc1` (centres undefined) was tested, and the IC50 was ≤ 10 µM. In the case of `Cc1ccc(OC2CCC(=O)N(c3c(Cl)csc3Cl)C2)cc1` (centres undefined), the IC50 is reported as ≤ 10 µM. With `Cc1cc(C)cc(CC2CCC(=O)N(c3c(Cl)ccnc3Cl)C2)c1` (centres undefined) the IC50 was ≤ 10 µM. With `O=C1CCC(C(O)c2ccc(F)cc2F)CN1c1c(Cl)cc(Br)cc1Cl` (centres undefined) the IC50 was ≤ 10 µM.

— the Kinase Knowledgebase extract (Sharma et al. 2016)
